According to US20020094524A1, “Compositions and methods for inhibiting HIV infection” (priority 2000, published 2002):

Legend:
[1] = tested on: HIV Bal strain; assay: HIV RT activity in HIV Bal strain-infected MDM; assay type: cell-based, HIV-1; settings: for HIV RT activity increased: MDM, 12 days after infection (FIG. 1A)
Method: The cells were also incubated with SP and/or anti-SP antibody. In this case, SP was incubated with (1:1000 dilution in 10% FCS DMEM) or without anti-SP antibody at room temperature for 10 min and then the mixture was added to the cell cultures for 2 h. When the cells were treated with the combination of CP-96,345 and SP, or CP-96,345, SP and anti-SP antibody, CP-96,345 was incubated with the cell culture for 10 min and then SP was added to the MDM or CP-96,345, SP and anti-SP (1:1000 in 10% FCS DMEM) were incubated for 10 min at room temperature and the mixture was incubated with the MDM for 2 h before infection with HIV. Untreated MDM served as controls. The cells were treated prior to, during, and throughout the infection.
HIV Infection: After 2 h incubation with or without the reagents described above, the cells were infected with equal amounts of cell-free HIV based on p24 antigen content (20 ng/10^6 cells) overnight, and then washed to remove unbound virus. Fresh media containing SP and/or CP-96,345 or anti-SP antibody were added to the MDM as described above. The culture media and the reagents were replaced twice weekly. The culture supernatants were harvested for HIV reverse transcriptase (RT) activity determinations. After HIV infection, the MDM were incubated for 8 to 12 days. At the termination of the experiments, cellular RNA was extracted for assessment of HIV gag gene expression using RT-PCR or real time RT-PCR assays.
The HIV RT activity assay was carried out based on the technique of Willey et al. (30) with modification (22).

[2] = tested on: CCR5; assay: Macrophage receptor expression by flow cytometry; assay type: cell-based, human; settings: overnight/24 h; among CD4, CCR5, CXCR4 and CD14 only CCR5 changed (FIG. 8)
Method: The cells were removed from the culture plate and then resuspended in 100 μl of phosphate-buffered saline (PBS). After incubation with 20 μl of either anti-CCR5-FITC or anti-CXCR4-FITC or anti-CD4-FITC or anti-CD14-FITC for 45 min at 4° C., the cells were washed twice with PBS and fixed with 1% paraformaldehyde in PBS. Fluorescein-conjugated control antibodies were isotype-matched IgG. Fluorescence was analyzed on an EPICS-Elite flow cytometer (Beckman-Coulter Electronics, Hialeah, Fla.).

[3] = tested on: HIV LTR promoter; assay: HIV LTR-driven CAT activity assay in U38 cells; assay type: cell-based
Source text: ACH-2 and U38 cell lines (25, 26) were obtained from the NIH AIDS Reagent Program. DNA extracted from ACH-2 cells was used as a positive standard for HIV DNA PCR as previously reported (27). The U38 cell line contains stably integrated, silent copies of the HIV LTR (long terminal repeat) promoter linked to a CAT (chloramphenicol acetyltransferase) gene and was used to study the effect of SP and/or CP-96,345 and R-113281 on the activation of HIV LTR promoter.
Chloramphenicol acetyltransferase (CAT) activity assay:U38 cells (2×10^6 cells) were incubated with different concentrations of SP and/or CP-96,345 or R-113281 for 48 h. Untreated U38 cells were used as a background control. Cellular proteins were extracted using 1× Reporter Lysis Bufffer (Promega Corp., Madison, Wis.). The lysates were incubated with a mixture containing 0.15 μCi of ^14C-labeled chloramphenicol (DuPont Inc., Boston, Mass.) and 200 μg/ml of n-Butyryl CoA (Promega Corp., Madison, Wis.) in a total volume of 125 μl at 37° C. for 3 h. The acetylated forms of chloramphenicol were extracted with xylene (Aldrich Chemical Company, Milwaukee, Wis.). CAT activity of each sample was quantified using a liquid-scintillation counter (Packard Instrument Company, Downers Grove, Ill.). The results were expressed as the ratio of CAT activity (CPM) of the SP and/or CP-96,345-treated or R-113281-treated U38 to that of the background control.

Molecule	viral replication by HIV RT activity vs HIV infection control ([1]; 10^−7M, 8 days after infection (FIG. 4))	CCR5 receptor expression on MDM (percentage positive cells) [2]	effect of SP alone on HIV replication (RT activity and gag mRNA) ([1]; SP 10^−6M, 12 days after infection (FIG. 5))	HIV RT activity increased ([1]; SP 10^−6M) [%]	HIV RT activity increased ([1]; SP 10^−8M) [%]	HIV RT activity increased ([1]; SP 10^−10M) [%]	HIV LTR-driven CAT activity vs untreated baseline ([3]; SP 10^−5M, 48 hours (FIG. 16))	HIV LTR-driven CAT activity vs untreated control cells ([3]; SP 10^−10 to 10^−6M, 48 h, P<0.05 (FIG. 7))
COc1ccccc1CN[C@H]1C2CCN(CC2)[C@H]1C(c1ccccc1)c1ccccc1 [CP-96,344]	did not have the effect	did not affect	–	–	–	–	–	–
Substance P [SP]	–	–	enhanced HIV replication	58	40	14	significantly increases	significantly increased
